# According to US11339171B2, “MDM2 inhibitors” (Gan & Lee Pharmaceuticals, priority 2017, dated 2022):
# Where “and” joins values, the source holds several entries; their conditions need not be identical. Equal entries are not always repeated. Where two headings read alike, the source gives them in different places.
# Legend:
# [1] = Pharmacokinetics in ICR mice after intravenous and intragastric administration; assay type: in vivo; settings: for F*: PO 5 mg/kg vs IV 2 mg/kg, mean; for Vd: read-out: Vz; for MRT last: read-out: MRT(0-t); for MRT inf: read-out: MRT(0-∞)
# Procedure, shortened: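 Compounds were dissolved at 0.5 mg/ml in DMSO/PEG400/HP-β-CD saline vehicle and given to overnight-fasted male ICR mice, 2 mg/kg by vein or 5 mg/kg by gavage (n=3 each). Plasma was then protein-precipitated, assayed by LC-MS/MS, and PK parameters including oral bioavailability were derived.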
# [2] = target: T1, MDM2 (Homo sapiens, UniProt Q00987); assay: Inhibition test of MDM2-P53 (GST-MDM2, Biotin-P53, Anti-GST-Tb, SA-XL665); assay type: binding
# T1 construct: made in house
# T1 sequence (Q00987 whole entry): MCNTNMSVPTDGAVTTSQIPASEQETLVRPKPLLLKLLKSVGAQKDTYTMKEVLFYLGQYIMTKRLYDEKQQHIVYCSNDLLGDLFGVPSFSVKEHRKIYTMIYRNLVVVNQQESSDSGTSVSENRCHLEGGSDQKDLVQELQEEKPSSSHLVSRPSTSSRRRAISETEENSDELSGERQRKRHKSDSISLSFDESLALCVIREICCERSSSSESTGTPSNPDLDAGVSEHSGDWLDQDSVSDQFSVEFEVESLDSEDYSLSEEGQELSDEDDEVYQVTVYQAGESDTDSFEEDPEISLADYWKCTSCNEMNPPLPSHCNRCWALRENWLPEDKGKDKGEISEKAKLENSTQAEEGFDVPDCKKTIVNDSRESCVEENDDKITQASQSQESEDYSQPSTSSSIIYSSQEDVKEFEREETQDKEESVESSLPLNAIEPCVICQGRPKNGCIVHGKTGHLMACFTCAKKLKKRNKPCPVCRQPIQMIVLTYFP
# Procedure, shortened: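 Binding was measured by TR-FRET with GST-MDM2 at 4 nM final in PBS with 0.1% BSA, 5 mM DTT and 1 mM AEBSF. Compounds were tested as twelve-point 5-fold dilutions and incubated with the detection mix for 90 min at 25 °C with shaking before plate-reader reading and curve fitting.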
# [3] = tested on: human osteosarcoma cell line SJSA-1; assay: Inhibition of proliferation of human osteosarcoma cell line SJSA-1 (DAPI staining, In Cell Analyzer); settings: Homo sapiens, SJSA-1, 72 h, read-out: IC50 (nM), inhibitory activity on proliferation of human osteosarcoma cell line SJSA-1, SJSA-1, incubated 72 h
# [4] = ICR mice, IV 2 mg/kg, individual animals 301-303, 2 mg/kg
# [5] = ICR mice, PO 5 mg/kg, individual animals 401-403, 5 mg/kg
# [6] = male, ICR, mouse, plasma, iv, 2 mg/kg, ICR mice, IV 2 mg/kg, individual animals 301-303, read-out: Cmax
# [7] = male, ICR, mouse, plasma, iv, 2 mg/kg, ICR mice, IV 2 mg/kg, individual animals 301-303, read-out: Tmax
# [8] = male, ICR, mouse, plasma, iv, 2 mg/kg, ICR mice, IV 2 mg/kg, individual animals 301-303
# [9] = male, ICR, mouse, plasma, iv, 2 mg/kg, ICR mice, IV 2 mg/kg, mean of 3 animals
# [10] = male, ICR, mouse, plasma, iv, 2 mg/kg, ICR mice, IV 2 mg/kg, mean of 3 animals, read-out: AUC(0-t)
# [11] = male, ICR, mouse, plasma, iv, 2 mg/kg, ICR mice, IV 2 mg/kg, mean of 3 animals, read-out: Cmax
# [12] = male, ICR, mouse, plasma, iv, 2 mg/kg, ICR mice, IV 2 mg/kg, mean of 3 animals, read-out: Tmax
# [13] = male, ICR, mouse, plasma, iv, 2 mg/kg, ICR mice, IV 2 mg/kg, mean of 3 animals, read-out: t1/2 (converted)
# [14] = male, ICR, mouse, plasma, po, 5 mg/kg, ICR mice, PO 5 mg/kg, individual animals 401-403
# [15] = male, ICR, mouse, plasma, po, 5 mg/kg, ICR mice, PO 5 mg/kg, individual animals 401-403, read-out: AUC(0-t)
# [16] = male, ICR, mouse, plasma, po, 5 mg/kg, ICR mice, PO 5 mg/kg, individual animals 401-403, read-out: Cmax
# [17] = male, ICR, mouse, plasma, po, 5 mg/kg, ICR mice, PO 5 mg/kg, individual animals 401-403, read-out: Tmax
# [18] = male, ICR, mouse, plasma, po, 5 mg/kg, ICR mice, PO 5 mg/kg, individual animals 401-403, read-out: t1/2 (converted)
# [19] = male, ICR, mouse, plasma, po, 5 mg/kg, ICR mice, PO 5 mg/kg, mean of 3 animals
# [20] = male, ICR, mouse, plasma, po, 5 mg/kg, ICR mice, PO 5 mg/kg, mean of 3 animals, read-out: AUC(0-t)
# [21] = male, ICR, mouse, plasma, po, 5 mg/kg, ICR mice, PO 5 mg/kg, mean of 3 animals, read-out: Cmax
# [22] = male, ICR, mouse, plasma, po, 5 mg/kg, ICR mice, PO 5 mg/kg, mean of 3 animals, read-out: Tmax
# [23] = male, ICR, mouse, plasma, po, 5 mg/kg, ICR mice, PO 5 mg/kg, mean of 3 animals, read-out: t1/2 (converted)
# [24] = male, ICR, mouse, plasma, po, 5 mg/kg, oral intragastric administration 5 mg/kg, read-out: AUC0-t
compound,measurement,setting,value
"COc1nc(OCCF)ncc1-c1nc2c(n1C(C)C)[C@@]1(C(=O)Nc3cc(Cl)ccc31)N(c1cc(Cl)ccc1C)C2=O [Example S-140, (S)-6-chloro-5′-(5-chloro-2-methylphenyl)-2′-(2-(2-fluoroethoxy)-4-methoxypyrimidin-5-yl)-3′-isopropyl-3′H-spiro[dihydroindole-3,4′-pyrrolo[3,4-d]imidazole]-2,6′(5′H)-dione]",AUC(0-t),[1]; [4],9144.58 ng·h/mL and 19456.40 ng·h/mL and 11628.12 ng·h/mL
same,CL,[1]; [4],3.37 mL/min/kg and 1.67 mL/min/kg and 2.26 mL/min/kg
same,Cmax,[1]; [4],6627.89 ng/mL and 5215.16 ng/mL
same,MRT(0-t),[1]; [4],1.58 h and 3.73 h and 1.94 h
same,Vz,[1]; [4],0.61 L/kg and 0.52 L/kg
same,t1/2,[1]; [4],1.70 h and 4.19 h and 2.67 h
same,F*,[1]; ICR mice,72.11%
same,AUC(0-t),[1]; [5],26053.96 ng·h/mL and 23914.34 ng·h/mL
same,AUC(0-∞),[1]; [5],26994.24 ng·h/mL and 26699.24 ng·h/mL
same,Cmax,[1]; [5],5947.01 ng/mL and 4972.85 ng/mL
same,MRT(0-t),[1]; [5],2.67 h
same,MRT(0-∞),[1]; [5],2.93 h and 3.85 h
same,Tmax,[1]; [5],1.00 h
same,t1/2,[1]; [5],1.54 h and 2.38 h
same,Cmax,[1]; [6],4540 ng/mL
same,Tmax,[1]; [7],0.08 h
same,Vd,[1]; [8],0.5 L/kg
same,clearance,[1]; [9],2.43 mL/min/kg
same,AUC(0-t),[1]; [10],13400 ng·h/mL
same,Cmax,[1]; [11],5460 ng/mL
same,MRT last,[1]; [9],2.42 h
same,Tmax,[1]; [12],0.083 h
same,Vd,[1]; [9],0.54 L/kg
same,half-life,[1]; [13],2.86 h
same,AUC(0-t),"[1]; male, ICR, mouse, plasma, iv, 2 mg/kg, ICR mice, IV 2 mg/kg, mean of 3 animals, second AUC column (c5) of Table 26, read-out: AUC(0-t)",14900 ng·h/mL
same,MRT last,"[1]; male, ICR, mouse, plasma, iv, 2 mg/kg, ICR mice, IV 2 mg/kg, mean of 3 animals, second MRT column (c7) of Table 26",3.36 h
same,AUC(0-inf),[1]; [14],24700 ng·h/mL
same,AUC(0-t),[1]; [15],22600 ng·h/mL
same,Cmax,[1]; [16],4250 ng/mL
same,MRT last,[1]; [14],2.97 h
same,MRT inf,[1]; [14],3.69 h
same,Tmax,[1]; [17],2 h
same,half-life,[1]; [18],2.19 h
same,AUC(0-inf),[1]; [19],26100 ng·h/mL
same,AUC(0-t),[1]; [20],24200 ng·h/mL
same,Cmax,[1]; [21],5060 ng/mL
same,MRT last,[1]; [19],2.87 h
same,MRT inf,[1]; [19],3.49 h
same,Tmax,[1]; [22],1.67 h
same,half-life,[1]; [23],2.04 h
same,AUC(0-t),[1]; [24],24200 ng·h/mL
same,half-life,"[1]; male, ICR, mouse, plasma, po, 5 mg/kg, oral intragastric administration 5 mg/kg, read-out: half-life (converted)",2.04 h
same,IC50,[2],1.06 nM
same,IC50,[3],81.5 nM
"COc1nc(C2CC2)ncc1-c1nc2c(n1C(C)C)[C@@]1(C(=O)Nc3cc(Cl)ccc31)N(c1cc(Cl)cnc1C)C2=O [Example S-159, (S)-6-chloro-5′-(5-chloro-2-methylpyridin-3-yl)-2′-(2-cyclopropyl-4-methoxypyrimidin-5-yl)-3′-isopropyl-3′H-spiro[dihydroindole-3,4′-pyrrolo[3,4-d]imidazole]-2,6′(5′H)-dione]",AUC(0-t),[1]; [4],4456.51 ng·h/mL and 4501.92 ng·h/mL
same,Cmax,[1]; [4],2591.90 ng/mL and 2457.53 ng/mL
same,MRT(0-t),[1]; [4],1.45 h and 1.52 h
same,MRT(0-∞),[1]; [4],2.00 h and 2.19 h
same,Vz,[1]; [4],1.05 L/kg
same,t1/2,[1]; [4],1.75 h
same,F*,[1]; ICR mice,52.53%
same,AUC(0-t),[1]; [5],5902.77 ng·h/mL and 6839.45 ng·h/mL
same,AUC(0-∞),[1]; [5],6003.28 ng·h/mL and 7052.50 ng·h/mL
same,Cmax,[1]; [5],1853.01 ng/mL and 1794.96 ng/mL
same,MRT(0-t),[1]; [5],2.27 h and 2.45 h
same,MRT(0-∞),[1]; [5],2.40 h and 2.68 h
same,t1/2,[1]; [5],1.28 h and 1.47 h
same,AUC(0-inf),[1]; [8],3720 ng·h/mL
same,clearance,[1]; [8],17.9 mL/min/kg
same,AUC(0-t),"[1]; male, ICR, mouse, plasma, iv, 2 mg/kg, ICR mice, IV 2 mg/kg, individual animals 301-303, read-out: AUC(0-t)",3600 ng·h/mL
same,Cmax,[1]; [6],2540 ng/mL
same,MRT last,[1]; [8],1.23 h
same,MRT inf,[1]; [8],1.45 h
same,Tmax,[1]; [7],0.08 h
same,Vd,[1]; [8],0.95 L/kg
same,half-life,"[1]; male, ICR, mouse, plasma, iv, 2 mg/kg, ICR mice, IV 2 mg/kg, individual animals 301-303, read-out: t1/2 (converted)",1.22 h
same,AUC(0-inf),[1]; [9],4500 ng·h/mL
same,clearance,[1]; [9],15.1 mL/min/kg
same,AUC(0-t),[1]; [10],4180 ng·h/mL
same,Cmax,[1]; [11],2530 ng/mL
same,MRT last,[1]; [9],1.4 h
same,MRT inf,[1]; [9],1.88 h
same,Tmax,[1]; [12],0.083 h
same,Vd,[1]; [9],1.02 L/kg
same,half-life,[1]; [13],1.61 h
same,AUC(0-inf),[1]; [14],3770 ng·h/mL
same,AUC(0-t),[1]; [15],3740 ng·h/mL
same,Cmax,[1]; [16],1440 ng/mL
same,MRT last,[1]; [14],1.9 h
same,MRT inf,[1]; [14],1.95 h
same,Tmax,[1]; [17],1 h
same,half-life,[1]; [18],1.03 h
same,AUC(0-inf),[1]; [19],5610 ng·h/mL
same,AUC(0-t),[1]; [20],5500 ng·h/mL
same,Cmax,[1]; [21],1700 ng/mL
same,MRT last,[1]; [19],2.21 h
same,MRT inf,[1]; [19],2.34 h
same,Tmax,[1]; [22],1 h
same,half-life,[1]; [23],1.26 h
same,AUC(0-t),[1]; [24],5500 ng·h/mL
same,IC50,[2],2.8 nM
same,IC50,[3],34.2 nM
